Results as given in patent US20150087627A1, “COMBINATION OF KINASE INHIBITORS AND USES THEREOF” (Intellikine LLC, priority 2011, published 2015).

Assays:
PTEN mutant cells = assay: Western blot of Akt, S6 and 4EBP phosphorylation in PTEN mutant cells (FIG. 6B); type: cell-based
[1] = test system: MDA-MB-361 human breast cancer xenografts; assay: Antitumor activity, multiple dosing schedules, MDA-MB-361 xenografts (Example 41); type: in vivo, Mus musculus; conditions: Day 28
Protocol: Compound A was prepared in 100% PEG400 every 5-7 days and stored at approximately 25° C., shielded from light. The control article used in this study was 100% PEG400.
Low passage MDA-MB-361 cells were grown in Dulbecco's Modified Eagle's Medium (DMEM) media supplemented with 20% fetal bovine serum (FBS) and 1× penicillin/streptomycin (Invitrogen) until approximately 80% confluency was reached. Prior to injection, the cells were detached with Trypsin (Invitrogen), washed twice with phosphate buffered saline (PBS), and resuspended in RPMI (Roswell Park Memorial Institute) media (Invitrogen) without supplements. Cells were resuspended to a final concentration of 10.0×10^7 cells/mL in DMEM media without supplements, with 50% Matrigel (BD Biosciences). MDA-MB-361 cells (10.0×10^6 cells per animal in 0.1-mL injection volume) were implanted SC into the flank of female athymic nude mice. The animals used in this study are described in the following table.
4-5 week old female athymic nude mice were inoculated SC in flank (cell suspension in serum free DMEM and 50% Matrigel) with 10.0×10^6 MDA-MB-361 cells. Tumor growth was monitored with vernier calipers. The mean TV (MTV) was calculated using the formula V=W^2×L/2. When the MTV reached approximately 280 mm^3, the animals were randomized into 14 treatment groups (n=5/group). […] Tumor growth and body weight were measured twice per week. Percent TGI and body weight change were calculated on Day 28. Treatment started on Day 0 for 28 days. Antitumor activity was determined on day 28 of treatment by calculating the percent TGI using
Percent TGI=(mean tumor volume [MTV] of the control group−MTV of a treated group)/MTV of the control group×100. Equation 1
The differences in the tumor growth trends over time between pairs of treatment groups were assessed using linear mixed effects regression models. These models account for the fact that each animal was measured at multiple time points. A separate model was fit for each comparison, and the area under the curve (AUC) values for each treatment group were calculated using the predicted values from the model. The percent decrease in AUC (ΔAUC) relative to the reference group was then calculated.
Drug combinations were assessed for synergy using observed AUC values. The change in AUC relative to the control was calculated for both single agent treatment groups as well as the combination group. The interaction between the two compounds was then assessed by comparing the change in AUC observed in the combination group to the sum of the changes observed in both single agents. The results can be divided into four categories: synergistic, additive, sub-additive, and antagonistic. Further details regarding combination analyses are provided in the appendix. All p values less than 0.05 were considered significant.

[2] = test system: MDA-MB-361, MDA-MB-453 and SKBr3 breast cancer cells; assay: Western blot of PI3K pathway in cell lines with elevated PI3K α activity (FIG. 11); type: cell-based; conditions: cell lines with elevated PI3K α activity: MDA-MB-361, MDA-MB-453 (PIK3CA mutation), SKBr3 (HER2)
[3] = test system: 786-0 cells, a human kidney carcinoma cell line having a non-mutated PI3Kα; assay: In vivo efficacy in 786-0 kidney carcinoma xenograft; set-up: species or system mice; conditions: FIG. 6
Protocol: Compound A was administered orally at 60 and 120 mg/kg and compound A was administered orally as a solution at 1 mg/kg (QD). For example, a PI3Kα inhibitor is compared to a kinase inhibitor with specificity for mTor. […] FIG. 6C also provides biochemical potency data for the two compared inhibitors. PI3 Kinase α, β, γ and δ activity was assayed using the PI3 Kinase HTRF® assay kit (Millipore Corporation). Purified recombinant PI3Kα, PI3Kβ, PI3Kγ and PI3Kδ were obtained from Millipore Corporation. […] Emission ratios were converted into percent inhibitions and imported into GraphPad Prism software. […] IC50 values were determined using a nonlinear regression model available in GraphPad Prism 5.

[4] = test system: HCT-116 human colorectal cancer xenografts; assay: Antitumor activity, HCT-116 xenografts (Example 44); type: in vivo, Mus musculus; conditions: Day 21
Protocol: Compound A was prepared in PEG400 (TCAL, San Diego, Calif., USA) every 7 days and stored at room temperature, shielded from light. The vehicle used in this study was PEG400 (Sigma, St. Louis, Mo., USA).
Low passage (passage number 8) HCT-116 cells (American Type Culture Collection ATCC, Manassas, Va., USA) were grown in McCoy's 5A (ATCC) media with 10% fetal bovine serum (FBS) (PAA Laboratories Pty Ltd, Morningside, Queensland, Australia) and supplied at a concentration of 5.0×10^7 cells/mL. HCT-116 cells (5.0×10^6/animal, 0.1-mL injection volume) were implanted SC into the flank of female athymic nude mice. The animals used in this study are described in the following table.
Female 9 to 10-week-old female Foxn1 nu Hsd:Athymic nude mice were inoculated SC in the flank with 5.0×10^6 HCT-116 cells. Tumor growth was monitored with vernier calipers. The MTV was calculated using the formula V=W^2×L/2. […] Tumor growth and body weight were measured twice per week. Percent TGI and body weight change were calculated on Day 21 while animals were on treatment. […] Antitumor activity was determined by calculating the percent TGI using Equation 1: % tumor growth inhibition (TGI)=(mean tumor volume [MTV] of the control group−MTV of a treated group)/MTV of the control group×100. […]
Drug combinations were assessed for synergy using observed AUC values. […]

Row | SMILES | inhibition of Akt, S6, and 4EBP phosphorylation (PTEN mutant cells) | TGI ([1]; 60 mg/kg QD PO) | TGI ([1]; 70 mg/kg QD 3on/4off PO) | TGI ([1]; 140 mg/kg QD 3on/4off PO) | TGI ([1]; 210 mg/kg QW PO) | inhibition of the PI3K pathway [2] | anti-tumor activity in 786-0 model ([3]; orally at 60 and 120 mg/kg, compared to MDA derived tumors) | TGI ([4]; 120 mg/kg PO QD for 21 days) | TGI ([1]; 0.3 mg/kg QD PO) | TGI ([1]; 1.0 mg/kg QD 3on/4off PO) | TGI ([1]; 3.0 mg/kg QW PO) | inhibition of kinase activity and tumor growth in 786-0 model ([3]; orally as a solution at 1 mg/kg (QD)) | TGI ([4]; 0.6 mg/kg PO QD 5on/2off for 21 days, not significantly different from control)
1 | Nc1nc2cc(-c3ccc4ncc(C(=O)N5CCOCC5)n4c3)ccc2o1 [Compound A] | not | 84.5% | 76.0% | 84.2% | 64.7% | inhibition of the PI3K pathway | decreased activity | 8.2% | – | – | – | – | –
2 | CC(C)n1nc(-c2ccc3oc(N)nc3c2)c2c(N)ncnc21 [Compound B] | selective inhibition | – | – | – | – | – | – | – | 71.1% | 63.6% | 52.7% | effective | 4.5%
